Key:
[1] = test system: E. coli clinical isolate, β-lactamase TEM-ESBL; CTX-M-15; NDM-19; assay: MIC of ampicillin without/with 30 μg/mL TEM3.2, clinical isolates; format: cell-based; conditions: isolate 2017 Qatar, IAI, Abscess
Method: (§1) Moreover, the core sequence of peptide TEM3.0 also occurs in the structurally related SHV β-lactamase (FIG. 2E). Although the C-terminal extension residues H and N have been replaced with physicochemically similar R and Q, respectively (FIG. 2H). […] To quantify the synergy between these four peptides and penicillin G, we performed a so-called checkerboard assay, which allows to compare the activity of two test compounds co-incubated (here peptide and a beta-lactam antibiotic), to their individual activities in isolation. The result from the assay is quantified as the Fractional Inhibitory Concentration Index (FICI), and it is generally accepted that values below 0.5 indicate synergistic effects between the compounds. As a control, we generated a peptide using the same design, but based on a previously identified APR from the β-galactosidase enzyme (BGAL)^16 from E. coli (APR=SVIIWSL, peptide sequence=[…]) that has a MIC value>100 μg/mL on E. coli strain UZ_TEM104. We evaluated the synergy of the peptides with penicillin G in clinical E. coli isolates carrying the TEM (FIG. 2I) or SHV enzymes (FIG. 2J). […] As a further control, we also performed a checkerboard assay with an E. coli strain that was resistant to the aminoglycoside kanamycin and observed no synergy between this unrelated antibiotic and our peptides (FIG. 2L), in line with the notion that we are inhibiting a beta-lactamase but not the aminoglycoside degrading enzyme. […] The list of strains included some that harbored only TEM or SHV, but others contained additional Ambler Class A (CTX-M or OXA) or Class B (VIM and NDM) beta-lactamases. […] In contrast, the presence of the NDM-type […], that does have a high affinity for Ampicillin and that is completely distinct in sequence and structure from TEM and SHV, seemed to completely prevent the effect of the peptide on the beta-lactam sensitivity of the strains in which it occurred (see also further). As it appeared that TEM3.2 had activity in most isolates tested, we decided to focus further analysis on this peptide. Furthermore, we tested the performance of the TEM3.2 peptide in a checkerboard assay on strains carrying ESBL mutants of TEM, i.e. extended-spectrum mutations that cluster around the active site of the enzyme, and not in the aggregation prone region targeted by the peptide, and as expected from our mode of action, we observed synergy with ampicillin on these strains (FIG. 2M).
(§2) Determination of MIC values using the broth microdilution in the 96-well plate (BD Biosciences, Belgium) according to the EUCAST guideline, which was performed in 96-well polystyrene flat bottom microtiter plates (BD Biosciences). Briefly, a single colony was inoculated into 5 mL Difco™ Mueller Hinton Broth (BD Biosciences Ref 275730) and grown to the end-exponential growth phase in a shaking incubator at 37° C. Cultures were subsequently diluted to an MacFarland (0.5 optical density) then the culture was diluted to reach 10^6 CFU/mL in fresh MHB medium. 50 μl of different concentration of peptides ranging from 128 to 2 μg/mL were serially diluted to the sterile 96-well plate in MHB. 50 μL of the diluted bacteria in MHB were pipetted into 96-well plates to reach the final volume of 100 μL. The bacteria grown with the maximum concentration of carrier and medium were considered as positive and negative controls, respectively. The plates were statically incubated overnight at 37° C. to allow bacterial growth. OD was measured at 590 nm a multipurpose ultraviolet-visible plate reader, and the absorbance of the growth bacteria was measured using absorbance reader. Bacterial growth was also visually inspected and agreed well with the OD reading.

[2] = test system: E. coli clinical isolate, β-lactamase TEM-1; assay: as above; format: cell-based; conditions: isolates year NA, country NA
Method: as §1, §2

[3] = test system: E. coli clinical isolate, β-lactamase TEM-ESBL; CTX-M-27; assay: as above; format: cell-based; conditions: isolate 2017 Romania, UTI, Urine
Method: as §1, §2

[4] = molecular target: T1, recombinantly purified TEM-1 (Escherichia coli, UniProt P62593); format: biochemical, E. coli; conditions: thioflavin-T aggregation assay
T1 construct: DNA TEM (870 bp) or SHV (894 bp) were each sub-cloned into a PUC57 vector cloning site NdeI/XhoI; His-tag (N); TEV cleavage site (N); made in house; host or cells: E. coli BL21 (DE3)
Excerpt: Three replicates are shown for each condition. […] A single representative image is shown. […] Three replicates are shown for each condition. […] A single representative image is shown. […] A single representative image is shown. […] A single representative image is shown.

[5] = test system: E. coli strains carrying NDMs; assay: checkerboard assay (FICI), TEM3.2 and penicillin; format: cell-based; conditions: strains containing NDMs; significant spread
Excerpt: FIGS. 4A-4K. […] IV—Intravenous, IP—Intraperitoneal, SC—Subcutaneously. The data shown is from a single experiment with 4 animals per group. […] (ns—non significant, #—P>0.05, *—P≤0.05, ***—P≤0.01, ****—P≤0.001). (FIG. 4G) FICI plot as in FIG. 2, for the E. coli strains indicated and the combination of penicillin and the TEM3.2 peptide. […] (FIG. 4J) Same as FIG. 4H for peptide BGAL. (FIG. 4K) Same as FIG. 4H for peptide P33.
As we wondered about the generality of our peptide design approach, we set out to design a peptide to inactivate a structurally unrelated beta-lactamase. […] This enzyme was first isolated from a patient in 200850, by 2010 could be detected in clinical isolates throughout the UK and India^51 and by 2015 was detected in over 70 countries worldwide^52.
For the analysis of the synergy between the peptides with other antibiotics, a checkerboard assay was performed. […] FICI is calculated as the sum of the individual fractional inhibitory concentrations (FICs) for each drug (where MIC A and MIC B denote the MIC of each drug alone, and MIC AA+B and MIC BA+B denote the concentrations of A and B in the drug combination). […]

T1 sequence (P62593 24-286 limits assumed): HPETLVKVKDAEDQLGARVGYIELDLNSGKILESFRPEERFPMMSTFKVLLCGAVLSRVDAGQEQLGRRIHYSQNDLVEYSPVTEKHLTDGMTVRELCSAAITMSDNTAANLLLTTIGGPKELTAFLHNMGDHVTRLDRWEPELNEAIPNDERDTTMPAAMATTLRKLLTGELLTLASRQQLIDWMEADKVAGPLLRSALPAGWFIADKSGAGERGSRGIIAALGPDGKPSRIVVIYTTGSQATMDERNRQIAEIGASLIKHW

Substance: Ac-RLTAFLHNRRPRLTAFLRQRR-NH2 [TEM3.2]
- MIC ampicillin + 30 μg/mL TEM-3.2 [1]: >64
- MIC ampicillin + 30 μg/mL TEM-3.2 [2]: ≤0.06
- MIC ampicillin + 30 μg/mL TEM-3.2 [3]: ≤0.06
- induction of aggregation of recombinantly purified TEM beta-lactamase [4]: potent inducer of the aggregation
- synergy with penicillin (FICI) [5]: little or no synergy
